The text below walks through data of patent US8637523B2, “Compounds for the reduction of beta-amyloid production” (Bristol-Myers Squibb Company, priority 2010, dated 2014).

One experiment concerns Aβ42. Description: Cellular assay for inhibition of Aβ1-42 production (H4 APP751 SWE clone 8.20). The class given is cell-based. The conditions noted are these: 19 h, H4 APP751 SWE clone 8.20 cells, 19 h incubation; read-out: Activity Rating (Aβ42 cellular IC50), class symbol. As for the experimental part:
Cellular Assays for Inhibition of Aβ1-40 and Aβ1-42 Production
H4 cells stably transfected with APP751 containing the Swedish mutation (H4 APP751 SWE clone 8.20, developed at BMS) were maintained in log phase through twice weekly passage at a 1:20 split. […] Following incubation for 19 h in 5% CO2 at 37° C., plates were briefly centrifuged (1000 rpm, 5 min). A 10 μl aliquot from each well was transferred to a second assay plate (Costar 3709) for Aβ40 measurements. Antibody cocktails were freshly prepared by dilution into 40 mM Tris-HCl (pH 7.4) with 0.2% BSA and added to assay plates. For Aβ42 measurements, antibodies specific for the Aβ42 neoepitope (565, developed at BMS; conjugated to the Wallac reagent (Perkin Elmer)) and the N-terminal sequence of Aβ peptide (26D6, developed at SIBIA; conjugated to APC (Perkin Elmer)) were mixed and 20 μl of the mixture was added to each well of the incubated cell plate yielding a final concentration of 0.8 ng/well 565 and 75 ng/well 26D6. For the Aβ40 measurements, antibodies specific for the Aβ40 neoepitope (TSD, developed at BMS; conjugated to the Wallac reagent (Perkin Elmer)) and 26D6 as described above were mixed and 20 μl of the mixture was added to the 10 μl aliquots which had been removed previously from the cell plate yielding a final concentration of 1.6 ng/well TSD and 17.5 ng/well 26D6. Assay plates containing antibodies were sealed with aluminum foil and incubated overnight at 4° C. Signal was determined using a Viewlux counter (Perkin Elmer) and IC50 values determined using curve fitting in CurveMaster (Excel Fit based).
`Cc1ncn(-c2ccc3cc2OCCCCNc2nc(nc4c2CN(C)CC4c2ccc(F)cc2)N3)n1` (racemic) [Example 70B, 19-(4-fluorophenyl)-17-methyl-7-(3-methyl-1H-1,2,4-triazol-1-yl)-11,12,13,14,16,17,18,19-octahydro-10H-15,2-(azeno)-8,4-(metheno)pyrido[3,4-h][1,6,10,12]oxatriazacycloheptadecine]: the IC50 (commonly the concentration that inhibits the measured activity by half) was below 10 nM.

As for `CN1Cc2c3nc(nc2C(c2ccc(F)cc2)C1)Nc1ccc(C#N)c(c1)OCCCCN3` (racemic) [Example 71, 7-cyano-19-(4-fluorophenyl)-17-methyl-11, 12, 13,14,16,17,18,19-octahydro-10H-15,2-(azeno)-8,4-(metheno)pyrido[3,4-h][1,6,10,12]oxatriazacycloheptadecine], the 50% inhibitory concentration (IC50) was in the range of 10 to 100 nM.

Regarding `CN1Cc2c(nc3nc2N(C)C/C=C\COc2cc(ccc2C#N)N3)C(c2ccc(F)cc2)C1` (racemic) [Example 74, (11Z)-14,17-dimethyl-7-cyano-19-(4-fluorophenyl)-13,14,16,17,18,19-hexahydro-10H-15,2-(azeno)-8,4-(metheno)pyrido[3,4-h][1,6,10,12]oxatriazacycloheptadecine], the half-maximal inhibitory concentration (IC50) was in the range of 10 to 100 nM.

Turning to `Cc1ncn(-c2ccc3cc2OCCNCCNc2nc(nc4c2CCC4c2ccc(F)cc2)N3)n1` (single isomer, unassigned) [Example 55B, 19-(4-fluorophenyl)-7-(3-methyl-1H-1,2,4-triazol-1-yl)-11,12,13,14,15,17,18,19-octahydro-10H-16,2-(azeno)-8,4-(metheno)cyclopenta[i][1,4,7,11,13]oxatetraazacyclooctadecine], the concentration for half-maximal inhibition (IC50) lay in the range of 10 to 100 nM.

With `Cc1ncn(-c2ccc3cc2OCC(O)CCNc2nc(nc4c2CCC4c2ccc(F)cc2)N3)n1` (single isomer, unassigned) [Example 72B, 18-(4-fluorophenyl)-7-(3-methyl-1H-1,2,4-triazol-1-yl)-10,11,12,13,14,16,17,18-octahydro-15,2-(azeno)-8,4-(metheno)cyclopenta[h][1,6,10,12]oxatriazacycloheptadecin-11(3H)-ol], the IC50 was below 10 nM.

On to `N#Cc1ccc2cc1OCC(O)CCNc1nc(nc3c1CCC3c1ccc(F)cc1)N2` (single isomer, unassigned) [Example 73A, 7-cyano-18-(4-fluorophenyl)-10,11,12,13,14,16,17,18-octahydro-15,2-(azeno)-8,4-(metheno)cyclopenta[h][1,6,10,12]oxatriazacycloheptadecin-11(3H)-ol], for which the half-maximal inhibitory concentration (IC50) was 10 to 100 nM.

Still in this experiment, the particulars now being: H4 APP751 SWE clone 8.20 cells, 19 h incubation; read-out: Activity Rating (Aβ42 cellular IC50), class symbol.
With `Cc1ncn(-c2ccc3cc2OCCCCNc2nc(nc4c2CN(C)CC4c2ccc(F)cc2)N3)n1` (racemic) [Example 70A, 19-(4-fluorophenyl)-17-methyl-7-(3-methyl-1H-1,2,4-triazol-1-yl)-11,12,13,14,16,17,18,19-octahydro-10H-15,2-(azeno)-8,4-(metheno)pyrido[3,4-h][1,6,10,12]oxatriazacycloheptadecine], the IC50 was in the range of 10 to 100 nM.

As to `Clc1cn(-c2ccc3cc2OC/C=C\CCc2nc(nc4c2CCC4c2ccccc2)N3)cn1` (single isomer, unassigned) [Example 16A, (11Z)-7-(4-chloro-1H-imidazol-1-yl)-18-phenyl-10,13,14,16,17,18-hexahydro-15,2-(azeno)-8,4-(metheno)cyclopenta[h][1,10,12]oxadiazacycloheptadecine], the IC50 is below 10 nM.

Regarding `Clc1cn(-c2ccc3cc2OC/C=C\CCc2nc(nc4c2CCC4c2ccccc2)N3)cn1` (single isomer, unassigned) [Example 16B, (11Z)-7-(4-chloro-1H-imidazol-1-yl)-18-phenyl-10,13,14,16,17,18-hexahydro-15,2-(azeno)-8,4-(metheno)cyclopenta[h][1,10,12]oxadiazacycloheptadecine], the 50% inhibitory concentration (IC50) fell in the range of 10 to 100 nM.

With `N#Cc1ccc2cc1OCCNCCNc1nc(nc3c1CCC3c1ccc(F)cc1)N2` (single isomer, unassigned) [Example 26A, 7-cyano-19-(4-fluorophenyl)-11,12,13,14,15,17,18,19-octahydro-10H-16,2-(azeno)-8,4-(metheno)cyclopenta[i][1,4,7,11,13]oxatetraazacyclooctadecine], the IC50 lay within 10 to 100 nM.

On to `N#Cc1ccc2cc1OCCNCCNc1nc(nc3c1CCC3c1ccc(F)cc1)N2` (single isomer, unassigned) [Example 26B, 7-cyano-19-(4-fluorophenyl)-11,12,13,14,15,17,18,19-octahydro-10H-16,2-(azeno)-8,4-(metheno)cyclopenta[i][1,4,7,11,13]oxatetraazacyclooctadecine], for which the IC50 was 100 to 1000 nM.

For the molecule `CN1CCNc2nc(nc3c2CCC3c2ccc(F)cc2)Nc2ccc(C#N)c(c2)OCC1` (single isomer, unassigned) [Example 27A, 7-cyano-19-(4-fluorophenyl)-12-methyl-11,12,13,14,15,17,18,19-octahydro-10H-16,2-(azeno)-8,4-(metheno)cyclopenta[i][1,4,7,11,13]oxatetraazacyclooctadecine], the half-inhibitory concentration (IC50) was in the range of 10 to 100 nM.

Consider `CN1CCNc2nc(nc3c2CCC3c2ccc(F)cc2)Nc2ccc(C#N)c(c2)OCC1` (single isomer, unassigned) [Example 27B, 7-cyano-19-(4-fluorophenyl)-12-methyl-11,12,13,14,15,17,18,19-octahydro-10H-16,2-(azeno)-8,4-(metheno)cyclopenta[i][1,4,7,11,13]oxatetraazacyclooctadecine], for which the concentration for half-maximal inhibition (IC50) was 100 to 1000 nM.

Regarding `CN1CCCCOc2cc(ccc2C#N)Nc2nc3c(c1n2)CCC3c1ccc(F)cc1F` (single isomer, unassigned) [Example 32A, 7-cyano-18-(2,4-difluorophenyl)-14-methyl-10,11,12,13,14,16,17,18-octahydro-15,2-(azeno)-8,4-(metheno)cyclopenta[h][1,6,10,12]oxatriazacycloheptadecine], the IC50 lay within 10 to 100 nM.

For the molecule `CN1CCCCOc2cc(ccc2C#N)Nc2nc3c(c1n2)CCC3c1ccc(F)cc1F` (single isomer, unassigned) [Example 32B, 7-cyano-18-(2,4-difluorophenyl)-14-methyl-10,11,12,13,14,16,17,18-octahydro-15,2-(azeno)-8,4-(metheno)cyclopenta[h][1,6,10,12]oxatriazacycloheptadecine], the IC50 lay in the range of 100 to 1000 nM.

As to `Cc1ncn(-c2ccc3cc2OCCNCCNc2nc(nc4c2CCC4c2ccc(F)cc2)N3)n1` (single isomer, unassigned) [Example 55A, 19-(4-fluorophenyl)-7-(3-methyl-1H-1,2,4-triazol-1-yl)-11,12,13,14,15,17,18,19-octahydro-10H-16,2-(azeno)-8,4-(metheno)cyclopenta[i][1,4,7,11,13]oxatetraazacyclooctadecine], the IC50 fell in the range of 10 to 100 nM.

`Cc1ncn(-c2ccc3cc2OCC(O)CCNc2nc(nc4c2CCC4c2ccc(F)cc2)N3)n1` (single isomer, unassigned) [Example 72A, 18-(4-fluorophenyl)-7-(3-methyl-1H-1,2,4-triazol-1-yl)-10,11,12,13,14,16,17,18-octahydro-15,2-(azeno)-8,4-(metheno)cyclopenta[h][1,6,10,12]oxatriazacycloheptadecin-11(3H)-ol]: the IC50 is below 10 nM.

Turning to `Cc1ncn(-c2ccc3cc2OCC(O)CCNc2nc(nc4c2CCC4c2ccc(F)cc2)N3)n1` (single isomer, unassigned) [Example 72C, 18-(4-fluorophenyl)-7-(3-methyl-1H-1,2,4-triazol-1-yl)-10,11,12,13,14,16,17,18-octahydro-15,2-(azeno)-8,4-(metheno)cyclopenta[h][1,6,10,12]oxatriazacycloheptadecin-11(3H)-ol], the half-maximal inhibitory concentration (IC50) is below 10 nM.

On to `Cc1ncn(-c2ccc3cc2OCC(O)CCNc2nc(nc4c2CCC4c2ccc(F)cc2)N3)n1` (single isomer, unassigned) [Example 72D, 18-(4-fluorophenyl)-7-(3-methyl-1H-1,2,4-triazol-1-yl)-10,11,12,13,14,16,17,18-octahydro-15,2-(azeno)-8,4-(metheno)cyclopenta[h][1,6,10,12]oxatriazacycloheptadecin-11(3H)-ol], for which the half-inhibitory concentration (IC50) is below 10 nM.

Staying with this experiment, now noted: H4 APP751 SWE clone 8.20 cells, 19 h incubation; unit inferred; read-out: Activity Rating (Aβ42 cellular IC50), numeric value.
`CN1CCCCOc2cc(ccc2C#N)Nc2nc3c(c1n2)CCC3c1ccccc1` (single isomer, unassigned) [Example 34A, 7-cyano-14-methyl-18-phenyl-10,11,12,13,14,16,17,18-octahydro-15,2-(azeno)-8,4-(metheno)cyclopenta[h][1,6,10,12]oxatriazacycloheptadecine]: the IC50 came to 21 nM.

Take `CN1CCCCOc2cc(ccc2C#N)Nc2nc3c(c1n2)CCC3c1ccccc1` (single isomer, unassigned) [Example 34B, 7-cyano-14-methyl-18-phenyl-10,11,12,13,14,16,17,18-octahydro-15,2-(azeno)-8,4-(metheno)cyclopenta[h][1,6,10,12]oxatriazacycloheptadecine]: the IC50 came to 160 nM.
